The subject of test [1] is rat cerebral cortex synaptosomes. The test can be described thus: Synaptosomal 3H-ACh release, basal and K+-evoked. The text has this:
The effects of AF150 (and for comparison purposes, AF125, MeN-A-343 and oxotremorine) on basal- and K^+-evoked release of ^3H-ACh were studied on synaptosomes prepared from rat cerebral cortex using the methods described in detail by Pittel et al (J. Neurochem., 55: 665-672, 1990). […] On the other hand, the action of AF150 on presynaptic muscarinic receptors, causing an increase in K^+-evoked ACh release, can be considered either as an M2 antagonistic or an M1 agonistic effect. […] The existence of muscarinic autoreceptors that increase ACh release was manifested also in the PNS in smooth muscle preparation (Kilbinger and Nafziger, Naunyn Schmiedebergs Arch. Pharmacol. 328: 304-309, 1985).

The target of test [2] is T1, m3 subtype (SK-N-SH cells) (Homo sapiens, UniProt P20309).
T1 construct: endogenous in cells; host or cells: SK-N-SH human neuroblastoma cells
T1 sequence (P20309 whole entry): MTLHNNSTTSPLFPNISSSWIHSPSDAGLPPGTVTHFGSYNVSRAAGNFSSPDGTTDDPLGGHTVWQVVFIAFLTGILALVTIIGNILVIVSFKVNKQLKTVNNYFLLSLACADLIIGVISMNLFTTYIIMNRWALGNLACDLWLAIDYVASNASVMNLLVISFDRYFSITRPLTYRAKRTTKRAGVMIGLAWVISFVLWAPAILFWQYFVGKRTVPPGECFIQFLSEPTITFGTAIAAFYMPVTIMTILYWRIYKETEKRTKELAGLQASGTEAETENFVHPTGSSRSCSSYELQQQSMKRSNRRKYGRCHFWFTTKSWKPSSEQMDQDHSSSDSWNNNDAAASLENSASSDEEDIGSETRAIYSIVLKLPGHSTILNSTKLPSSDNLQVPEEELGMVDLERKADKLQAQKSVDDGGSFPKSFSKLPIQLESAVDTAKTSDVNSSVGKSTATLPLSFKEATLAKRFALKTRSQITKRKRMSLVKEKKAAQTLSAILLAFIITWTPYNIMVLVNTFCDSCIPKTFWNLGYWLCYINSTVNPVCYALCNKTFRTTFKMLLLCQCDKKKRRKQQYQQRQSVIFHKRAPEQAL
As to the kind of experiment: PI hydrolysis in SK-N-SH neuroblastoma cells. Type of test: cell-based. As for the experimental part: The new compounds AF150, AF151, AF150(S) and AF125 were assayed for their ability to stimulate PI in CHO cells transfected with m1 and m3 receptors, respectively (Buck and Fraser, loc cit), and in cultured human neuroblastoma cells, line SK-N-SH, which express mainly the m3 subtype, but not the m1 subtype (Pinkas-Kramarski et al, Neurosci. Lett. 188: 335-340, 1990; Luthin et al Mol. Pharmacol. 34: 327-333, 1988). These compounds were also assayed on cultured PC12 cells which express mainly m4 subtype receptors and are coupled to inhibition of AC activity (Pinkas-Kramarski et al, loc cit).
Stimulation of PI breakdown was assayed using the method described by Stein et al (EMBO J. 7: 3031-3035, 1988), and modulation of AC activity was assayed by the method of Stein et al, loc cit and Pinkas-Kramarski et al (FEBS Lett., 239: 174-178, 1988). […]

Test [3] deals with T2, m1 receptors (Rattus norvegicus, UniProt P08482).
T2 construct: expressed in transfected cells; host or cells: CHO cells
T2 sequence (P08482 1-460): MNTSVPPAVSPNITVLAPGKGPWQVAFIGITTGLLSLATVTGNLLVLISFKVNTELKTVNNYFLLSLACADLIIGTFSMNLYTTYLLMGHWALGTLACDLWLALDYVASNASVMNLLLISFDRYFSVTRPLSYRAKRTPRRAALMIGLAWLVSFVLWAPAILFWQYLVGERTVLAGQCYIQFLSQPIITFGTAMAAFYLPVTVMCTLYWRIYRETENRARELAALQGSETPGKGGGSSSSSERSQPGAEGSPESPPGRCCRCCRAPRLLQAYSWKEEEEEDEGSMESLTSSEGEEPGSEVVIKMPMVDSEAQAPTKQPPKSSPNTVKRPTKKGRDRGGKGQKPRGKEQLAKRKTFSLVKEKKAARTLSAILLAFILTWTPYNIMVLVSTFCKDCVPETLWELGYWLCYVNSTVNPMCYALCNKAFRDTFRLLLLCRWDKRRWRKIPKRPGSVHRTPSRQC
The test can be described thus: PI hydrolysis in CHO cells transfected with m1 receptors. Particulars: for EC50: CHO m1, PI hydrolysis; for PI (phosphoinositides hydrolysis): tested at 1mM. The test is classed as cell-based.

Test [4] deals with T3, M1 muscarinic receptor (Rattus norvegicus, UniProt P08482).
T3 sequence (P08482 1-460): T2 sequence (P08482 1-460)
The test can be described thus: Displacement of 3H-PZ from cortical binding sites, Tris/Mn buffer, with and without GppNHp. Set-up: from tissue; host or cells: rat cerebral cortex homogenates. Particulars: for KL-G / KH-G: ratio of low and high affinities without GppNHp. The text has this:
The binding of agonists to M1 muscarinic receptors and the effect of guanylyl imidophosphate (GppNHp). Agonists are known to be coupled with guanine nucleotide binding proteins (G proteins).
Non-hydrolyzable guanine nucleotides such as GppNHp dissociate the G protein from the receptor and decrease the affinity of the receptor for agonists but not for antagonists. […] Molec.
Under these conditions agonists of high efficacy ("full agonists") bind directly to the M1 receptor subtype with two affinities. […] The ratio of low and high affinities (KL/KH) of the M1 receptor may predict the relative efficacies of agonists to activate putative M1 receptor-mediated second messenger systems.
KH, KL, %H and %L are the apparent inhibition constants of the tested ligands for the high and low affinity sites, respectively. G is GppNHp (guanylyl imidodiphosphate), and was used in 0.1 mM concentration. Displacement of ^3H-PZ from cortical binding sites was performed in Tris/Mn buffer (pH 7.4) for one hour at 25°C; the buffer included 1 mM EDTA and 2mM Mn^++ ions. […] The binding data were analyzed using a GraphPAD program and were fitted to one or two components. Values are means from 1-3 experiments carried out in triplicates.
For orientation: Displacement assays read how much labelled ligand stays bound in the presence of the test substance.

The target of test [5] is T4, M2 muscarinic receptors (Rattus norvegicus, UniProt P10980).
T4 construct: displacing from rat brain homogenates, cerebellum or frontal cortex; from tissue; host or cells: rat cerebellum homogenates
T4 sequence (P10980 1-466): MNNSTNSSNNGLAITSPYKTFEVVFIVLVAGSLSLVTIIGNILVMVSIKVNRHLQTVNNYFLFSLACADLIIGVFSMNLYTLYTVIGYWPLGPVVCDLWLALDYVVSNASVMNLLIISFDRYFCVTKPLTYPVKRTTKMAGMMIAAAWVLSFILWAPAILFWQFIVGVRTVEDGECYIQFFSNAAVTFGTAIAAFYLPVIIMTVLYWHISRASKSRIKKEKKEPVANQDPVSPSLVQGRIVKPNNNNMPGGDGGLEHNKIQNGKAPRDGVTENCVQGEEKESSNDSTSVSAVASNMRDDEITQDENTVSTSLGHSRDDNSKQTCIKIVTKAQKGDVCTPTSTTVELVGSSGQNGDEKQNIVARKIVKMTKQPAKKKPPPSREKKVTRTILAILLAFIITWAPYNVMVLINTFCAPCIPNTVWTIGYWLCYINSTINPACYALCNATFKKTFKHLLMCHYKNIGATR
The test can be described thus: Displacement of 3H-QNB from rat cerebellum, 50 mM phosphate buffer. Type of test: binding.

Test [6] concerns the target T3, M1 muscarinic receptor. The test can be described thus: Potentiation of AC activity (basal and forskolin-stimulated cAMP) via m1 receptors. Type of test: cell-based. On the set-up: expressed in transfected cells; host or cells: CHO cells. An excerpt:
Stimulation of m1 and m3 receptors elicit dose-dependent increases in the hydrolysis of phosphoinositides (PI). Agonist activation of the m1 receptor also elicits increases in basal and forskolin-stimulated cAMP, whereas the m3 receptor has no effect on intracellular cAMP levels (Buck and Fraser, Biochem. Biophys. Res. Comm. 173: 662-672, 1990). Stimulation of the m2 and m4 receptors by muscarinic agonists leads to preferential inhibition of adenylate cyclase (AC) activity (Mei et al, Life Sciences, 45: 1831-1851, 1989).

[7] abbreviates: +G (0.1 mM GppNHp), read-out: KH.
The mark [8] stands for this setting: +G (0.1 mM GppNHp), read-out: KL.
Setting [9] is: -G (without GppNHp), read-out: KH.

Molecules are shown by their SMILES. Read-outs that look alike come from different tables or passages of the source.

Regarding `CC1=NCC2(CN3CCC2CC3)O1` (racemic) [AF125, 2-Methyl-spiro(1,3 oxazoline-5,3')quinuclidine], in test [1] (1.0 mM), the “K+-evoked 3H-ACh release” value is 78±9 (2) %. Also, in test [2], the “interference with the effect of carbachol” value is 10-20%. Besides, the “stimulation of phosphoinositides hydrolysis relative to carbachol” value in test [2] is given as 20-25%. For the same compound, the “PI, % of carbachol effect” value was determined as 20% in test [2] (SK-N-SH m3) and 14% in test [3] (CHO m1). The Ki in test [4] (setting [7]) amounted to 9 µM; in test [4] (setting [8]) it was 12 µM; in test [4] (setting [9]), 9 µM; in test [4] (-G, read-out: KL), 12 µM; in test [5] (read-out: 3H-QNB-Binding KH2 (c), cerebellum, Table 5), 3.8 µM; in test [5] (read-out: 3H-QNB-Binding KH (c), cerebellum, Table 4) it was 3.8 µM.
The term EC50 denotes the concentration at which the effect is half-maximal. High values mean a less potent agent, low ones a more potent agent. Consider `CC1=NCC2(CCN(C)CC2)O1` [AF150, 2-Methyl-spiro(1,3-oxazoline-5,4')-1'-methylpiperidine], for which the “Basal 3H-ACh release” value in test [1] (0.1 mM) is recorded as 121%. Also, the “K+-evoked 3H-ACh release” value in test [1] (0.1 mM) is recorded as 110%; in test [1] (1.0 mM), 115±4 (6) p<0.01%. The “increase in basal cAMP” value in test [6] stood at 33%. The “increase in forskolin-stimulated cAMP” value in test [6] is recorded as 76%. For the same compound, the “PI, % of carbachol effect” value in test [2] (SK-N-SH m3) was found to be 40%. The concentration for a half-maximal effect (EC50) was found to be 3 µM in test [2] (SK-N-SH m3, PI hydrolysis) and 13 µM in test [3]. Besides, the “PI (phosphoinositides hydrolysis)” value in test [2] (SK-N-SH m3, tested at 1mM) was “+”; in test [3] (CHO m1), “+++”. Moreover, the “%L” value was determined as 100% in test [4] (+G (0.1 mM GppNHp)); 83% in test [4] (-G); 51% in test [5] (cerebellum, Table 4). For the same compound, the Ki in test [4] (setting [8]) is 21 µM; in test [4] (setting [9]), 0.11 µM; in test [4] (-G, read-out: KL), 11 µM; in test [5] (cerebellum, Table 4, read-out: 3H-QNB-Binding KH (c)), 4.5 µM; in test [5] (cerebellum, Table 4, read-out: 3H-QNB-Binding KL (d)), 79 µM; in test [5] (cerebellum, Table 5, read-out: 3H-QNB-Binding KH2 (c)), 4.9 µM. For the same compound, the Ki in test [5] (cerebellum, Table 5, read-out: 3H-QNB-Binding KL2 (d)) was found to be 83 µM. Further, the “% H” value in test [4] (-G) turned out to be 21%; in test [5] (cerebellum, Table 4), 49%. In test [4], the “KL-G / KH-G” value came out at 100. For the same compound, the “RATIOS d:c” value in test [5] (KL2 : KH2 cerebellum (3H-QNB)) is listed as 17. The “% H2” value in test [5] (cerebellum, Table 5) is on record as 51%. In addition, the “% L2” value in test [5] (cerebellum, Table 5) is reported as 49%.
In the case of `CC1=NC2(CCN(C)CC2)CO1` [AF151, 1-methylpiperidine-4-spiro-4'-(2'-methyl-1',3'-oxazoline)], in test [6], the “increase in basal cAMP” value stood at 33%. In addition, the “increase in forskolin-stimulated cAMP” value in test [6] came out at 76%. In test [3], the concentration giving a half-maximal response (EC50) came out at 54 µM. In addition, in test [3] (CHO m1), the “PI (phosphoinositides hydrolysis)” value was “+++”. Further, the “% H” value was 17% in test [4] (+G (0.1 mM GppNHp)) and 39% in test [4] (-G). For the same compound, the “%L” value is on record as 83% in test [4] (+G (0.1 mM GppNHp)) and 61% in test [4] (-G). In addition, the Ki in test [4] (setting [7]) worked out at 4.6 µM; in test [4] (setting [8]), 59 µM; in test [4] (setting [9]) it was 3.7 µM; in test [4] (-G, read-out: KL), 4.8 µM. In addition, in test [4], the “KL-G / KH-G” value amounted to 13.

For the origin of these results see patent EP0452101B1, “Spiro bridged and unbridged heterocyclic compounds” (ISRAEL INSTITUTE FOR BIOLOGICAL RESEARCH, priority 1990, dated 1991).
